What all share (format): biochemical
The target in one test is T1, LRRK2 (G2019S) (Homo sapiens, UniProt Q5S007, G2019S).
T1 construct: purchased SignalChem L10-12GG
In words: LRRK2(G2019S) enzyme assay (Promega ADP-Glo Kinase assay). The settings on record: 25 μM ATP, read-out: Enzyme activity against LRRK2 (G2019S). The method, then: All LRRK2 kinase inhibition assays were conducted by using Promega™ ADP-Glo™ Kinase assay systems (Cat No. V4475).
For LRRK G2019S, each compound mixed with 0.2 μg/μL of substrate, 25 μM ATP, 16 ng of LRRK2 G2019S enzyme (SignalChem, L10-12GG). All samples were diluted with kinase reaction buffer (40 mmol/L TrisHCl, 10 mmol/L MgCl2, and 0.1 μg/μL BSA, 0.05 mM DTT). After a 2 h reaction at 25° C., ADP-Glo™ (Promega™, V9102) reagent was added and incubated at rt for 40 min. Finally, kinase detection reagent (Promega™, Cat No. V6930) was added and reacted at 25° C. for 10 min. The luminescence signals were detected by using Synergy™ Neo2 microplate reader (BioTek®). Compound inhibition curve was fitted using GraphPad Prism 8.0 software.

In test [1] the target is various enzymes (Homo sapiens, UniProt O00141). In words: Enzyme IC50 of compound 48 (Table 3). The settings on record: SGK.
In test [2] the target is T2, various enzymes (Homo sapiens, UniProt P36888, D835V, form not given).
T2 construct: Enzyme IC50; other: FLT3(ITD, D835V)
In words: Enzyme IC50 of compound 48 (Table 3). The settings on record: read-out: Enzyme IC50; FLT3(ITD, D835V).

The text below walks through data of patent US12157741B2, “Macrocyclic inhibitors of DYRK1A” (DANA-FARBER CANCER INSTITUTE, INC., priority 2018, dated 2024).

T1 sequence (Q5S007 whole entry G2019S): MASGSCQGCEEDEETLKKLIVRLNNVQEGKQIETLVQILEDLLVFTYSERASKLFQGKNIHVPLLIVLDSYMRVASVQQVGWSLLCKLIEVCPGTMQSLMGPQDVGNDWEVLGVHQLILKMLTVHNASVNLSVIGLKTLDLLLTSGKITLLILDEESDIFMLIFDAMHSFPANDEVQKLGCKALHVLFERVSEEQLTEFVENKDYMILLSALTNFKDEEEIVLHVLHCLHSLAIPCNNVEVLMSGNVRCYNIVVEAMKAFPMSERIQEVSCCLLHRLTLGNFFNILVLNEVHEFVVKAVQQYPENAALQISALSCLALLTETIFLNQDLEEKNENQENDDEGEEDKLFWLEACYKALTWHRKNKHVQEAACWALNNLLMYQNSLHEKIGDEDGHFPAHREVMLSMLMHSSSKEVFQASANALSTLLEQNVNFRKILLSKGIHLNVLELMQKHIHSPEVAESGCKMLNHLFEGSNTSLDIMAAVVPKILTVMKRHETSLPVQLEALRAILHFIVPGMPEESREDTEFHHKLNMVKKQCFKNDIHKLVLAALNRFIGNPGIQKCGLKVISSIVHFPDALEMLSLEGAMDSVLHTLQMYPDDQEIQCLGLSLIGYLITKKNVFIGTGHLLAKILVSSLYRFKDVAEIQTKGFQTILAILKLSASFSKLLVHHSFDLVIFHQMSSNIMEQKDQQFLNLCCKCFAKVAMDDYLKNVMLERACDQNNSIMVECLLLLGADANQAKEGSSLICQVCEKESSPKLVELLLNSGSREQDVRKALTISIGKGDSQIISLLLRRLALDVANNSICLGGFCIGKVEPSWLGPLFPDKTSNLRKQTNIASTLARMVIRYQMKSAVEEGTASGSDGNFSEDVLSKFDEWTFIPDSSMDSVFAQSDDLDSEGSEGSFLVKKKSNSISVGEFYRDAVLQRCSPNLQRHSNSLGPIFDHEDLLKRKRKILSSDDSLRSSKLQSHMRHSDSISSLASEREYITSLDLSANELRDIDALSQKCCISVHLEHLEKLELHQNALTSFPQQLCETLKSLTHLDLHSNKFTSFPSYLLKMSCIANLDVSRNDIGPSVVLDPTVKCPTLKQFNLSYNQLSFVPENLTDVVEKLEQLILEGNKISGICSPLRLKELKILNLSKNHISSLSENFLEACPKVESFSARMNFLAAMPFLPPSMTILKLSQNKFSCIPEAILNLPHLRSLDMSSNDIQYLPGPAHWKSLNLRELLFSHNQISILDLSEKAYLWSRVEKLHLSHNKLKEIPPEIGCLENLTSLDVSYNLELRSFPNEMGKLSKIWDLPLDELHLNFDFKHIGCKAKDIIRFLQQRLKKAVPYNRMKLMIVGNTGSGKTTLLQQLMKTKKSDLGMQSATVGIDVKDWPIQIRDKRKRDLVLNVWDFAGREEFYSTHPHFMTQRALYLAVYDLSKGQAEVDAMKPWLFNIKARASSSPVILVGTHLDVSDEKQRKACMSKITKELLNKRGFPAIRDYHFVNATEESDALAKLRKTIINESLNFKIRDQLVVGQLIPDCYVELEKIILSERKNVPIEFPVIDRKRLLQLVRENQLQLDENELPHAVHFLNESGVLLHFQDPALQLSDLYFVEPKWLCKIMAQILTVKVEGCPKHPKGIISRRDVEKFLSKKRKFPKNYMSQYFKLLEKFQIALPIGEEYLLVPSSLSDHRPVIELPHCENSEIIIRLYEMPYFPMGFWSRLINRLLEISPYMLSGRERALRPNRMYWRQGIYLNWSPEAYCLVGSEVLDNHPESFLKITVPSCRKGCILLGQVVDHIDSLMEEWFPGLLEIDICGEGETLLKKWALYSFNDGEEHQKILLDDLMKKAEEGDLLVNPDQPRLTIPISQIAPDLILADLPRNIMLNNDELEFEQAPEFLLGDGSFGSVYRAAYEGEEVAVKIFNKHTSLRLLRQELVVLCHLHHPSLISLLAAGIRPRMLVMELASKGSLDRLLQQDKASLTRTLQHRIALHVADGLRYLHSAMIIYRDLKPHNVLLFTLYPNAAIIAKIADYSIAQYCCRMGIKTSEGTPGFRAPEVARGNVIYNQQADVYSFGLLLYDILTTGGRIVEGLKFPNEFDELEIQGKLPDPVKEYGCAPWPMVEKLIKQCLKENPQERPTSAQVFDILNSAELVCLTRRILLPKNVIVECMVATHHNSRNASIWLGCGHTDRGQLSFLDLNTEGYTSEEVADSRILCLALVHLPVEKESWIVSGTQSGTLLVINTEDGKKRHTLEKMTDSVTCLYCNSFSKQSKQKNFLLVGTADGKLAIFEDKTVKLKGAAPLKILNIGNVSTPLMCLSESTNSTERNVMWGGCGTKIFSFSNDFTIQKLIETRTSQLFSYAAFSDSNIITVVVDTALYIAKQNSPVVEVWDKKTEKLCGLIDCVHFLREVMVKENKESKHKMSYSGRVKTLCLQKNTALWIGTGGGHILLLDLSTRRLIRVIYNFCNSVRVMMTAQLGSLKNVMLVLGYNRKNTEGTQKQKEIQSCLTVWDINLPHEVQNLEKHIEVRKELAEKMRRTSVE
Chain of various enzymes (Homo sapiens, UniProt O00141) (O00141 whole entry): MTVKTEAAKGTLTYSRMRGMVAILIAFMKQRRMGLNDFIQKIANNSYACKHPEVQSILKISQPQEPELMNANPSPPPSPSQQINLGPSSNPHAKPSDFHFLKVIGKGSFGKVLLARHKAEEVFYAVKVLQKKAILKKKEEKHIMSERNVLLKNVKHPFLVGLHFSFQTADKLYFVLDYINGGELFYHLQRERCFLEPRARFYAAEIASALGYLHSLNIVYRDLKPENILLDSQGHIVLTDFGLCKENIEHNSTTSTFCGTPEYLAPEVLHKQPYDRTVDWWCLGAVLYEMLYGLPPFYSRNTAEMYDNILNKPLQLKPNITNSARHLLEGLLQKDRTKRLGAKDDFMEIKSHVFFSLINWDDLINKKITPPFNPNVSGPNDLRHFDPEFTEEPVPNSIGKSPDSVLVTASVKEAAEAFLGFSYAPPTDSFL

For the molecule `CN1Cc2nn(C)c(C#N)c2-c2cnc3[nH]cc(c3c2)-c2cn(nc2C(F)(F)F)CCCC1=O` [Compound 48, (Z)-31,5-dimethyl-6-oxo-13-(trifluoromethyl)-11H,21H,31H-5-aza-2(3,5)-pyrrolo[2,3-b]pyridina-1(4,1),3(4,3)-dipyrazolacyclononaphane-35-carbonitrile], the IC50 was more than 100 nM at LRRK2 (G2019S), 212 nM on various enzymes [1] and 354 nM at various enzymes [2].
